Counter-ions that a name gives are not always drawn. Like-named read-outs stand apart in the source and are kept apart here.
Tested on: Plasmodium falciparum: 3D7 strain
Experiment: P. falciparum 3D7 asexual blood stage assay (SYBR green readout)
Type: cell-based
Settings: Plasmodium falciparum, P. falciparum 3D7 in human erythrocytes, 72 h incubation, SYBR green fluorescence
Description: The compounds of the present invention are potent inhibitors of the growth and propagation of the Plasmodium falciparum parasite in human blood.
The assay used to measure the effect of test compounds on a bloodstream stage of Plasmodium falciparum: 3D7 strain employs SYBR green as the readout. This is a dye that binds to double stranded deoxyribonucleic acid (DNA) with a resulting increase in fluorescence, allowing detection of P. falciparum DNA in infected erythrocytes, and thereby providing a measure of parasite growth and propagation.
Erythrocytes (A+blood) were prepared for both parasite culture and assay by washing 4 times with incomplete media (15.9 g RPMI 1640 (25 mM HEPES, L-glutamine), 1 g NaHCO3, 2 g glucose, 400 μL gentacin (500 mg/mL), 2 mL hypoxanthine solution (13.6 g/L in 0.1M NaOH pH 7.3) in 1 litre of media). The cells were centrifuged at 1800 g for 5 minutes, before decanting the supernatant and re-suspending in fresh incomplete media. On the final wash, the cells were re-suspended in complete media (incomplete media with 5 g/L AlbumaxII), and centrifuged at 1800 g for 3 minutes. This cell sediment was treated as 100% haematocrit.
P. falciparum 3D7 was cultured in erythrocytes at 5% haematocrit in complete media at 37° C. (1% O2, 3% CO2, balance N2). Cultures were split on a weekly basis to achieve a 1% parasitaemia in erythrocites at 5% haematocrit in fresh media. Culture media is replaced by fresh media every other day (2 times during the week).
On day 1, test compounds were added to assay plates using Echo dispensing technology ([…] and 20 points titration). 50 nL of each compound dilution was added to 50 μL of culture (5% haematocrit, 0.5% parasitaemia) and incubated for 72 h at 37° C. (1% O2, 3% CO2, balance N2). Final concentrations of test compounds ranged from 50,000 nM to 15 nM, in […].
On day 4, 10 μL SYBR green (Invitrogen S7563 supplied as 10,000×concentrate in DMSO) pre-diluted to 3×concentrate with Lysis buffer (20 mM Tris pH 7.9, 5% EDTA, 0.16% w/v, 1.6% TX100 v/v) was added to the cultures and incubated in the dark, overnight, at room temperature.
On day 5, fluorescent signal was measured using a BioTek plate reader (excitation 485 nm, emission 528 nm). All data were processed using IDBS ActivityBase. Raw data were converted into percent inhibition through linear regression by setting the high inhibition control (mefloquine) as 100% and the no inhibition control (DMSO) as 0%. Quality control criteria for passing plates were as follows: Z′>0.5, S:B>3, % CV(no inhibition control)<15. The formula used to calculate Z′ is: […]
All EC50 curve fitting was undertaken using the following bi-phasic two site dose response using XLfit model 300 (IDBS):
where A=100 minus the top of the upper curve 1 and the bottom of lower curve; B=Hill slope; log(C)=IC50 concentration at lower site; log(D)=IC50 concentration at upper site; x=inhibitor concentration; and y=% inhibition.

SMILES | IC50 (3D7, Erythrocyte, 72 h) | IC50 (Erythrocyte, read-out: IC50)
C[C@@H]1C[C@H](N2C(=N)N[C@](C)(c3cccc(-c4ccc(F)cc4F)c3Cl)CC2=O)CCS1(=O)=O (relative stereo) [Example 63, (6S)-6-[2-Chloro-3-(2,4-difluoro-phenyl)phenyl]-2-imino-6-methyl-3-[(2R*,4R*)-2-methyl-1,1-dioxo-thian-4-yl]hexahydropyrimidin-4-one hydrochloride] | 74 nM | 
C[C@H]1C[C@H](N2C(=N)N[C@](C)(c3cccc(-c4ccc(F)cc4F)c3Cl)CC2=O)CCS1(=O)=O (relative stereo) [Example 65, (6S)-6-[2-Chloro-3-(2,4-difluoro-phenyl)phenyl]-2-imino-6-methyl-3-[(2S*,4R*)-2-methyl-1,1-dioxo-thian-4-yl]hexahydropyrimidin-4-one hydrochloride] | 1300 nM | 
C[C@H]1C[C@@H](N2C(=N)N[C@](C)(c3cccc(-c4ccc(OC(F)(F)F)cc4Cl)c3Cl)CC2=O)CCO1 [Example 2, (6S)-6-{2-Chloro-3-[2-chloro-4-(trifluoromethoxy)phenyl]phenyl}-2-imino-6-methyl-3-[(2S,4S)-2-methyltetrahydropyran-4-yl]-hexahydropyrimidin-4-one hydrochloride] | 78 nM | 
C[C@H]1C[C@@H](N2C(=N)N[C@](C)(c3cccc(-c4cn(CCN(C)C)nn4)c3Cl)CC2=O)CCO1 [Example 114, (6S)-6-(2-Chloro-3-{1-[2-(dimethylamino)ethyl]-1,2,3-triazol-4-yl}phenyl)-2-imino-6-methyl-3-[(2S,4S)-2-methyl-tetrahydropyran-4-yl]hexahydro-pyrimidin-4-one trifluoroacetic acid salt] | 938 nM | 
C[C@@H]1C[C@H](N2C(=N)N[C@](C)(c3cccc(-c4ccc(Cl)cn4)c3Cl)CC2=O)CCS1(=O)=O (relative stereo) [Example 74, (6S)-6-[2-Chloro-3-(5-chloro-pyridin-2-yl)phenyl]-2-imino-6-methyl-3-[(2R*,4R*)-2-methyl-1,1-dioxothian-4-yl]hexahydro-pyrimidin-4-one hydrochloride] | 59 nM | 
CO[C@@H]1C[C@H](N2C(=N)N[C@](C)(c3cccc(-c4ccc(N=S(C)(C)=O)cc4F)c3Cl)CC2=O)CCC1(F)F (relative stereo) [Example 11, (6S)-6-[2-Chloro-3-(4-{[(dimethyl)-(oxo)-λ^6-sulfanylidene]amino}-2-fluorophenyl)phenyl]-3-[(1R*,3R*)-4,4-difluoro-3-methoxycyclohexyl]-2-imino-6-methylhexahydropyrimidin-4-one hydrochloride] | 367 nM | 
C[C@H]1C[C@@H](N2C(=N)N[C@](C)(c3cccc(-c4ccc(F)cc4F)c3Cl)CC2=O)CCN1 (relative stereo) [Example 102, (6S)-6-[2-Chloro-3-(2,4-difluoro-phenyl)phenyl]-2-imino-6-methyl-3-[(2S*,4S*)-2-methylpiperidin-4-yl]hexahydropyrimidin-4-one hydrochloride] | 504 nM | 
C[C@H]1C[C@@H](N2C(=N)N[C@](C)(c3cccc(-c4cn(C5CCC5)nn4)c3Cl)CC2=O)CCO1 [Example 122, (6S)-6-[2-Chloro-3-(1-cyclobutyl-1,2,3-triazol-4-yl)phenyl]-2-imino-6-methyl-3-[(2S,4S)-2-methyl-tetrahydropyran-4-yl]hexahydro-pyrimidin-4-one trifluoroacetic acid salt] | 101 nM | 
C[C@H]1C[C@@H](N2C(=N)N[C@](C)(c3cccc(-c4ccc(Cl)nc4)c3Cl)CC2=O)CCO1 [Example 55, (6S)-6-[2-Chloro-3-(6-chloro-pyridin-3-yl)phenyl]-2-imino-6-methyl-3-[(2S,4S)-2-methyl-tetrahydropyran-4-yl]hexahydro-pyrimidin-4-one trifluoroacetic acid salt] | 11 nM | 
C[C@H]1C[C@H](N2C(=N)N[C@](C)(c3cccc(-c4ccc(OC(F)F)nc4)c3Cl)CC2=O)CCS1(=O)=O (relative stereo) [Example 73, (6S)-6-{2-Chloro-3-[6-(difluoro-methoxy)pyridin-3-yl]phenyl}-2-imino-6-methyl-3-[(2S*,4R*)-2-methyl-1,1-dioxothian-4-yl]-hexahydropyrimidin-4-one hydrochloride] | 227 nM | 
C[C@H]1C[C@@H](N2C(=N)N[C@](C)(c3cccc(-c4c(F)cccc4F)c3Cl)CC2=O)CCO1 [Example 47, (6S)-6-[2-Chloro-3-(2,6-difluoro-phenyl)phenyl]-2-imino-6-methyl-3-[(2S,4S)-2-methyltetrahydro-pyran-4-yl]hexahydropyrimidin-4-one trifluoroacetic acid salt] | 44 nM | 
CCCCn1cc(-c2cccc([C@]3(C)CC(=O)N([C@H]4CCO[C@@H](C)C4)C(=N)N3)c2Cl)nn1 [Example 127, (6S)-6-[3-(1-Butyl-1,2,3-triazol-4-yl)-2-chlorophenyl]-2-imino-6-methyl-3-[(2S,4S)-2-methyl-tetrahydropyran-4-yl]hexahydro-pyrimidin-4-one trifluoroacetic acid salt] | 100 nM | 
C[C@H]1C[C@@H](N2C(=N)N[C@](C)(c3cccc(-c4ccc(F)c(F)c4)c3Cl)CC2=O)CCO1 [Example 38, (6S)-6-[2-Chloro-3-(3,4-difluoro-phenyl)phenyl]-2-imino-6-methyl-3-[(2S,4S)-2-methyltetrahydro-pyran-4-yl]hexahydropyrimidin-4-one trifluoroacetic acid salt] | 135 nM | 
CN(C)[C@H]1C[C@@H](N2C(=N)N[C@](C)(c3cccc(-c4ccc(F)cc4F)c3Cl)CC2=O)C1 (single isomer, unassigned; isomer 2) [Example 89] |  | 7950 nM
C[C@H]1C[C@@H](N2C(=N)N[C@](C)(c3cccc(-c4cn(-c5ccccc5)nn4)c3Cl)CC2=O)CCO1 [Example 126, (6S)-6-[2-Chloro-3-(1-phenyl-1,2,3-triazol-4-yl)phenyl]-2-imino-6-methyl-3-[(2S,4S)-2-methyl-tetrahydropyran-4-yl]hexahydro-pyrimidin-4-one trifluoroacetic acid salt] | 5 nM | 
C[C@@H]1C[C@@H](N2C(=N)N[C@](C)(c3cccc(-c4ccc(F)cc4F)c3Cl)CC2=O)CCS1(=O)=O (relative stereo) [Example 66, (6S)-6-[2-Chloro-3-(2,4-difluoro-phenyl)phenyl]-2-imino-6-methyl-3-[(2R*,4S*)-2-methyl-1,1-dioxo-thian-4-yl]hexahydropyrimidin-4-one hydrochloride] | 272 nM | 
C[C@H]1C[C@@H](N2C(=N)N[C@](C)(c3cccc(-c4cnoc4)c3Cl)CC2=O)CCO1 [Example 54, (6S)-6-[2-Chloro-3-(isoxazol-4-yl)-phenyl]-2-imino-6-methyl-3-[(2S,4S)-2-methyltetrahydropyran-4-yl]hexahydropyrimidin-4-one trifluoroacetic acid salt] | 42 nM | 
COc1cc(-c2cccc([C@]3(C)CC(=O)N([C@H]4CCO[C@@H](C)C4)C(=N)N3)c2Cl)ccn1 [Example 59, (6S)-6-[2-Chloro-3-(2-methoxy-pyridin-4-yl)phenyl]-2-imino-6-methyl-3-[(2S,4S)-2-methyl-tetrahydropyran-4-yl]hexahydro-pyrimidin-4-one trifluoroacetic acid salt] | 61 nM | 
C[C@H]1C[C@@H](N2C(=N)N[C@](C)(c3cccc(-c4cccc(Cl)c4)c3Cl)CC2=O)CC[C@H]1O (relative stereo) [Example 8, (6S)-6-[2-Chloro-3-(3-chloro-phenyl)phenyl]-3-[(1S*,3S*,4R*)-4-hydroxy-3-methylcyclohexyl]-2-imino-6-methylhexahydro-pyrimidin-4-one hydrochloride] | 247 nM | 
C[C@@]1(c2cccc(-c3cnn(CC(F)(F)F)c3)c2Cl)CC(=O)N([C@H]2CCC(F)(F)[C@@H](O)C2)C(=N)N1 (relative stereo) [Example 85, (6S)-6-{2-Chloro-3-[1-(2,2,2-trifluoroethyl)pyrazol-4-yl]phenyl}-3-[(1S*,3S*)-4,4-difluoro-3-hydroxycyclohexyl]-2-imino-6-methylhexahydropyrimidin-4-one hydrochloride] | 2670 nM | 

Reference: patent US20250134890A1, “ANTIMALARIAL HEXAHYDROPYRIMIDINE ANALOGUES” (UCB BIOPHARMA SRL, priority 2022, published 2025)
